{"source": "ChEMBL document CHEMBL4308882", "about": "“Synthesis, biological evaluation and molecular dynamic simulations of novel Benzofuran-tetrazole derivatives as potential agents against Alzheimer's disease” (2019)", "key": {"Caenorhabditis elegans [1]": {"test_system": "Caenorhabditis elegans", "test": "(§1) Antialzheimer activity in Caenorhabditis elegans CL2006 harboring temperature-inducible human amyloid beta transgene assessed as reduction in AChE level at 1 mM pretreated for 48 hrs at 15 degC followed by heat stress stimulation to 25 degC for 35 hrs by amplex red assay", "assay_type": "functional, organism-based"}, "Caenorhabditis elegans [2]": {"test_system": "Caenorhabditis elegans", "test": "Protection against amyloid beta aggregation-induced paralysis in Caenorhabditis elegans CL4176 harboring temperature-inducible human amyloid beta transgene assessed as inhibition of paralysis at 1 mM pretreated for 48 hrs at 15 degC followed by heat stress stimulation to 25 degC for 35 hrs relative to control", "assay_type": "functional"}, "Caenorhabditis elegans [3]": {"test_system": "Caenorhabditis elegans", "test": "as §1, with “CL4176” for “CL2006”, “amyloid beta aggregation” for “AChE level”, “thioflavin-s staining based microscopic analysis” for “amplex red assay”", "assay_type": "functional, organism-based"}}, "note": "Active and inactive are the calls of the source. The calls are words filed in the database; no cut-off is given here.", "data": [{"smiles": "CC(C)(C)n1nnnc1C(Nc1ccc(F)cc1)c1cn(-c2ccccc2)nc1-c1cc2ccccc2o1", "note": "(stereo unspecified)", "values": [{"measurement": "Activity", "setting": "Caenorhabditis elegans [1]", "result": "Active"}, {"measurement": "inhibition at 1000 µM", "setting": "Caenorhabditis elegans [2]", "result": 56.5, "unit": "%"}, {"measurement": "inhibition", "setting": "Caenorhabditis elegans [3]", "result": "Active"}]}, {"smiles": "Cc1ccc(NC(c2cn(-c3ccccc3)nc2-c2cc3ccccc3o2)c2nnnn2C(C)(C)C)cc1F", "note": "(stereo unspecified)", "values": [{"measurement": "Activity", "setting": "Caenorhabditis elegans [1]", "result": "Active"}, {"measurement": "inhibition at 1000 µM", "setting": "Caenorhabditis elegans [2]", "result": 45.4, "unit": "%"}, {"measurement": "inhibition", "setting": "Caenorhabditis elegans [3]", "result": "Active"}]}, {"smiles": "COc1ccc(NC(c2cn(-c3ccccc3)nc2-c2oc3ccccc3c2C)c2nnnn2C(C)(C)C)cc1", "note": "(stereo unspecified)", "values": [{"measurement": "Activity", "setting": "Caenorhabditis elegans [1]", "result": "Active"}, {"measurement": "inhibition at 1000 µM", "setting": "Caenorhabditis elegans [2]", "result": 67.1, "unit": "%"}, {"measurement": "inhibition", "setting": "Caenorhabditis elegans [3]", "result": "Active"}]}, {"smiles": "CC(C)(C)n1nnnc1C(Nc1ccc(C(F)(F)F)c(Br)c1)c1cn(-c2ccccc2)nc1-c1cc2ccccc2o1", "note": "(stereo unspecified)", "values": [{"measurement": "inhibition at 1000 µM", "setting": "Caenorhabditis elegans [2]", "result": 63.8, "unit": "%"}, {"measurement": "inhibition", "setting": "Caenorhabditis elegans [3]", "result": "Active"}]}, {"smiles": "Cc1ccc(NC(c2cn(-c3ccc(Cl)cc3)nc2-c2oc3ccccc3c2C)c2nnnn2C(C)(C)C)cc1", "note": "(stereo unspecified)", "values": [{"measurement": "Activity", "setting": "Caenorhabditis elegans [1]", "result": "Active"}, {"measurement": "inhibition at 1000 µM", "setting": "Caenorhabditis elegans [2]", "result": 46.7, "unit": "%"}, {"measurement": "inhibition", "setting": "Caenorhabditis elegans [3]", "result": "Active"}]}, {"smiles": "Cc1ccc(NC(c2cn(-c3ccc(F)cc3)nc2-c2cc3ccccc3o2)c2nnnn2C(C)(C)C)cc1", "note": "(stereo unspecified)", "values": [{"measurement": "inhibition at 1000 µM", "setting": "Caenorhabditis elegans [2]", "result": 42.1, "unit": "%"}, {"measurement": "inhibition", "setting": "Caenorhabditis elegans [3]", "result": "Active"}]}]}
